In patent US7410986B2, “4-6-diphenyl pyridine derivatives as antiinflammatory agents” (Bayer Aktiengesellschaft, priority 2000, dated 2008):
Counter-ions that a name gives are not always drawn. Like-named read-outs stand apart in the source and are kept apart here.

Tests used:
human IKK-β = molecular target: T1, human IKK-β (Homo sapiens, UniProt O14920); assay: IKK-β kinase inhibitory assay; assay type: biochemical; conditions: compounds of about 40 to 90% purity, read-out: In vitro activity grade (invitro, IC50)
T1 construct: A cDNA fragment encoding human IKK-β open reading frame was generated by PCR; His; made in house; host or cells: Sf21 insect cells (baculovirus); the GST-IκBα substrate was made in E. coli
T1 sequence (O14920 1-756): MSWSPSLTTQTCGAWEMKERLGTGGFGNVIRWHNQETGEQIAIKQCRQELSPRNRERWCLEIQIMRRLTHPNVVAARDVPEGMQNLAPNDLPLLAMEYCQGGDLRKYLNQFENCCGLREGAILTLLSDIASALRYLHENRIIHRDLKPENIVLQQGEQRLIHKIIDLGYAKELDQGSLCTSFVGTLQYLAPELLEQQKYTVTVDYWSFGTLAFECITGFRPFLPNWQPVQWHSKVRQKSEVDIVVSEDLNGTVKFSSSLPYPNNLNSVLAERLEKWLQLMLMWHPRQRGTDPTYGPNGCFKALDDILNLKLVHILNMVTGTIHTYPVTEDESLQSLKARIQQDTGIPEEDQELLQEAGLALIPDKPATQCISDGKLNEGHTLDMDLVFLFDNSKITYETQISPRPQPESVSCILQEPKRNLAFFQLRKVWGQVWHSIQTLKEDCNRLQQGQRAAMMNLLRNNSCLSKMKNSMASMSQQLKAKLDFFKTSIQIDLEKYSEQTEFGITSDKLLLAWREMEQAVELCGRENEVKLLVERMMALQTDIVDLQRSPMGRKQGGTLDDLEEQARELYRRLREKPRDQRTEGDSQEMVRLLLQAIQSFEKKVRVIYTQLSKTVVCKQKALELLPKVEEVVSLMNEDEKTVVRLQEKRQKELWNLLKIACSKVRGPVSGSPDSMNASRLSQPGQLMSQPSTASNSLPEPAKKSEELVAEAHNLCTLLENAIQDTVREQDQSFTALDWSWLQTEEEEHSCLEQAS
Text: IKK-β Kinase Inhibitory Assay.
• (1) Preparation of IKK-β Kinase Protein. • A cDNA fragment encoding human IKK-β open reading frame was generated by PCR with the use of a pair of primers designed from the published sequence (Woronicz J D et al. (1997) Science 278,866-869). A template was obtained from Quickclone cDNA (Clontech) using Elongase™ Amplification kit (Life Technologies). The DNA fragments generated by PCR were gel-purified and subcloned into pBluescript. The cDNA fragment cloned in pBluescript was inserted into pcDNA3.1/His C KpnI/NotI, and transferred into pVL1393 SmaI/XbaI (Pharmingen) to construct a baculovirus transfer vector. Then the vector, together with the linearized baculovirus (BaculoGold™, Pharmingen) was used to transfect Sf21 cells (Invitrogen, San Diego, Calif.). Generated recombinant baculovirus was cloned and amplified in Sf21 cells, grown in TNM-FH insect cell medium (Life Technologies, Inc.) supplemented with 10% FCS, […] Gentamycin, 0.1% Pluronic F-68 (Life Technologies, Inc.) as suspension culture (200 ml in 1 L Erlenmeyer flask; 27° C.; 130 rpm). Sf21 cells were infected with this amplified virus with a multiplicity of infection of 5 following standard protocols (Crossen R, Gruenwald S (1997) Baculovirus Expression Vector System Instruction Manual, Pharmingen Corporation) and harvested 48 hrs. later. The cells were lysed to obtain the produced chimeric protein of IKK-β kinase fused by histidine (His-tagged IKK-beta). • (2) The Preparation of Purified GST-IκBα Fusion Proteins • An expression vector containing the nucleotide sequence encoding fusion protein of GST with amino acid residues 1 to 54 of IκBα under the control of an IPTG-inducible promoter was constructed. The expression vector was introduced in E. coli and the transformant was cultured and lysed to obtain a GST-IκBα fusion protein. Then the resulting GST-IκBα fusion protein was purified and biotinated for kinase assay. • (3) The Measurement of IKK-β Kinase Activity • The 96-well format kinase assay of IKK-β was performed to test the inhibitory activity of the compounds of the present invention. First, 5 μl of a test compound was put in the presence of 2.5% dimethyl sulfoxide (DMSO) in each well in a U-bottomed 96-well plate (Falcon). For control wells of background (BG) and total phosphorylation (TP), 5 μl of 2.5% DMSO was put. Recombinant IKK-β (final 0.6 μg/ml) and bio-GST-IκBα (1-54) (final 0.2 μM) were diluted in 25 μl of 2×kinase buffer β (40 mM Tris-HCl, pH 7.6, 40 mM MgCl2, 40 mM β-glycerophosphate, 40 mM p-nitrophenyl-phosphate, 2 mM EDTA, 40 mM creatine phosphate, 2 mM DTT, 2 mM Na3VO4, 0.2 mg/ml BSA and 0.8 mM phenylmethylsulfonyl fluoride) and transferred to the 96-well plate. Bio-GST-IκBα (1-54) in 25 μl of 2×kinase buffer β without IKK-β was transferred to BG wells. Then 20 μl of 12.5 μM ATP, 62.5 μCi/ml [γ-^33P] ATP (Amersham Pharmacia Biotech) was added and the resulting mixture was incubated for 2 hrs. at room temperature. The kinase reactions were terminated by the addition of 150 μl of termination buffer (100 mM EDTA, 1 mg/ml BSA, 0.2 mg NaN3). One handred and fifty μl of the sample was transferred to a streptavidin-coated, white MTP (Steffens Biotechniche Analysen GmbH #08114E14. FWD) to capture the biotinylated substrates. After 1 hr. of incubation, non-bound radioactivity was eliminated by washing the wells five times with 300 μl of washing buffer including 0.9% NaCl and 0.1% (w/v) Tween-20 with the use of a MW-96 plate washer (BioTec). The bound radioactivity was determined after the addition of 170 μl MicroScint-PS scintillation cocktail (Packard) using a TopCount scintillation counter. Syk Tyrosine Kinase Inhibitory Assay for Selectivity. • (1) Preparation of Syk Protein • A cDNA fragment encoding human Syk openreading frame was cloned from total RNA of human Burkitt's lymphoma B cell lines, Raji (American Type Culture Collection), with the use of RT-PCR method. […]

[1] = test system: RANTES production in response to TNF-α from A549 cells; assay: RANTES production in response to TNF-α from A549 cells; assay type: cell-based, human; conditions: 100 ng/ml TNF-α, compounds of about 40 to 90% purity, read-out: Cellular activity grade (A549, IC50)

Row | Structure (SMILES) | IC50 (human IKK-β) | IC50 ([1]; Homo sapiens, A549, 24 h) | IC50 ([1]; 24 hrs)
1 | CCN1CCN(CCC(=O)Nc2cccc(-c3cc(-c4ccccc4O)nc(N)c3C#N)c2)CC1 [Example 4-12] | 500 to 2000 nM | 1000 to 10000 nM | 
2 | Cc1ccc(O)c(-c2cc(-c3cccc(NC(=O)C4CCC(=O)O4)c3)c(C#N)c(N)n2)c1 (stereo not drawn) [Example 1-11] | > 10000 nM | > 10000 nM | 
3 | N#Cc1c(-c2cccc(NC(=O)CN3CCN(C(=O)c4ccco4)CC3)c2)cc(-c2ccccc2O)nc1N [Example 4-03] | 2000 to 10000 nM | 1000 to 10000 nM | 
4 | N#Cc1c(-c2ccc(Cl)c(NC(=O)CCN3CCCCC3)c2)cc(-c2ccccc2O)nc1N [Example 2-18] | 500 to 2000 nM | > 10000 nM | 
5 | CN(C)c1ccc(-c2cc(-c3ccccc3O)nc(N)c2C#N)cc1NC(=O)CCN1CCCCC1 [Example 4-36] | 500 to 2000 nM |  | 1000 to 10000 nM
6 | CCCNCC(=O)Nc1cccc(-c2cc(-c3ccccc3O)nc(N)c2C#N)c1 [Example 4-19] | 500 to 2000 nM | 1000 to 10000 nM | 
7 | N#Cc1c(-c2ccc(N3CCC(NC(=O)C(F)(F)F)C3)c(NC(=O)CCN3CCCCC3)c2)cc(-c2ccccc2O)nc1N (stereo not drawn) [Example 3-17] | < 500 nM | 1000 to 10000 nM | 
8 | CCOC(=O)C1CCCN(CCC(=O)Nc2cccc(-c3cc(-c4ccccc4O)nc(N)c3C#N)c2)C1 (stereo not drawn) [Example 4-27] | 2000 to 10000 nM | 1000 to 10000 nM | 
9 | N#Cc1c(-c2cccc(NC(=O)C(O)CCC(=O)O)c2)cc(-c2cc(Cl)ccc2O)nc1N (stereo not drawn) [Example 1-17] | 2000 to 10000 nM | > 10000 nM | 
10 | N#Cc1c(-c2ccc(N3CCCCC3)c(NC(=O)CCN3CCCCC3)c2)cc(-c2ccccc2O)nc1N [Example 3-10] | 2000 to 10000 nM | 1000 to 10000 nM | 
11 | N#Cc1c(-c2ccc(NC(=O)C(O)CCC(=O)O)cc2)cc(-c2ccccc2O)nc1N (stereo not drawn) [Example 1-10] | < 500 nM | > 10000 nM | 
12 | CC(=O)Nc1ccc(-c2cc(-c3ccccc3O)nc(N)c2C#N)cc1OCCN1CCCCC1 [Example 9, N-{4-[2-amino-3-cyano-6-(2-hydroxyphenyl)-4-pyridinyl]-2-[2-(1-piperidinyl)ethoxy]phenyl}acetamide ditrifluoroacetate] | 500 to 2000 nM | 1000 to 10000 nM | 
13 | CN(C)c1ccc(-c2cc(-c3ccccc3O)nc(N)c2C#N)cc1NC(=O)CCN [Example 3-07] | < 500 nM | 1000 to 10000 nM | 
14 | COCCNCC(=O)Nc1cccc(-c2cc(-c3ccccc3O)nc(N)c2C#N)c1 [Example 4-24] | 500 to 2000 nM | > 10000 nM | 
15 | N#Cc1c(-c2cc(NC(=O)CCN)ccc2F)cc(-c2ccccc2O)nc1N [Example 2-12] | 2000 to 10000 nM | > 10000 nM | 
16 | CC(C)C[C@H](N)C(=O)Nc1cc(-c2cc(-c3ccccc3O)nc(N)c2C#N)ccc1N1CCC(NC(=O)C(F)(F)F)C1 (stereo partly drawn) [Example 3-16] | < 500 nM | 1000 to 10000 nM | 
17 | N#Cc1c(-c2cccc(NC(=O)CN3CCN(C4CCCCC4)CC3)c2)cc(-c2ccccc2O)nc1N [Example 4-04] | 500 to 2000 nM | 1000 to 10000 nM | 

Row | Structure (SMILES) | IC50 (human IKK-β) | IC50 ([1]; Homo sapiens, A549, 24 h) | IC50 ([1]; 24 hrs)
18 | CN1CCN(CCC(=O)Nc2cccc(-c3cc(-c4ccccc4O)nc(N)c3C#N)c2)CC1 [Example 4-10] | 500 to 2000 nM | 1000 to 10000 nM | 
19 | CCOC(=O)C1CCN(CCC(=O)Nc2cccc(-c3cc(-c4ccccc4O)nc(N)c3C#N)c2)CC1 [Example 4-26] | 500 to 2000 nM | > 10000 nM | 
20 | N#Cc1c(-c2cccc(NC(=O)CN3CCN(CCO)CC3)c2)cc(-c2ccccc2O)nc1N [Example 4-08] | 500 to 2000 nM | 1000 to 10000 nM | 
21 | COCC(=O)Nc1cccc(-c2cc(-c3ccccc3O)nc(N)c2C#N)c1 [Example 1-04] | 500 to 2000 nM | > 10000 nM | 
22 | N#Cc1c(-c2cccc(C(=O)O)c2)cc(-c2ccccc2O)nc1N [Example 5-1, Sodium 3-[2-amino-3-cyano-6-(2-hydroxyphenyl)-4-pyridinyl]benzoate] | 2000 to 10000 nM | > 10000 nM | 
23 | CC(C)C[C@H](N)C(=O)Nc1cc(-c2cc(-c3ccccc3O)nc(N)c2C#N)ccc1N(C)Cc1ccccc1 [Example 3-15] | 2000 to 10000 nM | 1000 to 10000 nM | 
24 | N#Cc1c(-c2ccc(OCC3CC3)c(NC(=O)CN3CCCCC3)c2)cc(-c2ccccc2O)nc1N [Example 4-35] | > 10000 nM | > 10000 nM | 
25 | N#Cc1c(-c2cccc(NC(=O)CCN3CCN(CCO)CC3)c2)cc(-c2ccccc2O)nc1N [Example 4-13] | 500 to 2000 nM | 1000 to 10000 nM | 
26 | N#Cc1c(-c2cc(NC(=O)CCN3CCCCC3)ccc2Cl)cc(-c2ccccc2O)nc1N [Example 2-10] | 500 to 2000 nM | 1000 to 10000 nM | 
27 | N#Cc1c(-c2ccc(N3CCCCC3)c(NC(=O)CCN)c2)cc(-c2ccccc2O)nc1N [Example 3-03] | < 500 nM | 1000 to 10000 nM | 
28 | CN(C)c1ccc(-c2cc(-c3ccccc3O)nc(N)c2C#N)cc1NC(=O)CNCC1CC1 [Example 4-1, N^1-[5-[2-amino-3-cyano-6-(2-hydroxyphenyl)-4-pyridinyl]-2-(dimethylamino)phenyl]-N^2-(cyclopropylmethyl)glycinamide hydrochloride] | 500 to 2000 nM | 1000 to 10000 nM | 
29 | CN(C)c1ccc(-c2cc(-c3ccccc3O)nc(N)c2C#N)cc1NC(=O)CCN1CCCCC1 [Example 3-08] | < 500 nM | 1000 to 10000 nM | 
30 | N#Cc1c(-c2ccc(N)c(O)c2)cc(-c2ccccc2O)nc1N [Example 2-15] | < 500 nM | 1000 to 10000 nM | 
31 | CN1CCN(C(=O)Nc2cccc(-c3cc(-c4ccccc4O)nc(N)c3C#N)c2)CC1 [Example 2-08] | 2000 to 10000 nM | 1000 to 10000 nM | 
32 | N#Cc1c(-c2ccc(NC(=O)CCN3CCCCC3)cc2)cc(-c2ccccc2O)nc1N [Example 2-05] | 500 to 2000 nM | > 10000 nM | 
33 | N#Cc1c(-c2ccc(C(=O)O)cc2)cc(-c2ccccc2O)nc1N [Example 5-02] | 500 to 2000 nM | > 10000 nM | 
